The record followed here is patent US6583299B1, “α-amino-β-sulfonyl hydroxamic acid compounds” (priority 1999, dated 2003).

Common to all, as to experiment: In vitro metalloprotease inhibition, fluorogenic MCA peptide substrate
Type in all cases: biochemical

Test [1] has as its target T1, MMP-1 (Homo sapiens, UniProt P03956).
T1 construct: host or cells: transfected HT-1080 cells
T1 sequence (P03956 100-469): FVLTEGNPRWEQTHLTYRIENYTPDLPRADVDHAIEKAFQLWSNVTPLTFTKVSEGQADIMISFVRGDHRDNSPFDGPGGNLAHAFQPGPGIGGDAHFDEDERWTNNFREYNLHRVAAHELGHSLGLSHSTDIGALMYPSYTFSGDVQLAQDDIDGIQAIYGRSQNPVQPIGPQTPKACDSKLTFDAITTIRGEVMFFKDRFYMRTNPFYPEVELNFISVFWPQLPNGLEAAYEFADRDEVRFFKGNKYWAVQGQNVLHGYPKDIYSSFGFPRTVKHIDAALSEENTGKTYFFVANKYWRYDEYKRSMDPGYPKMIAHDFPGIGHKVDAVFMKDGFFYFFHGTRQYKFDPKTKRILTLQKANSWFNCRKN
The note with it: recombinant human enzyme, APMA-activated, room temperature, pH 7.5.
Method: (§1) Briefly, 4-aminophenylmercuric acetate (APMA) or trypsin-activated MMPs were incubated with various concentrations of the inhibitor compound at room temperature for 5 minutes.
(§2) The expressed enzyme was purified first over a heparin agarose column and then over a chelating zinc chloride column. The proenzyme was activated by APMA for use in the assay.
MMP-1 expressed in transfected HT-1080 cells was provided by Dr. Harold Welgus of Washington University, St. Louis, Mo. The enzyme was also activated using APMA and was then purified over a hydroxamic acid column.
(§3) The enzyme substrate is a methoxycoumarin-containing polypeptide having the following sequence:
(§4) MCA-ProLeuGlyLeuDpaAlaArgNH2, wherein MCA is methoxycoumarin and Dpa is 3-(2,4-dinitrophenyl)-L-2,3-diaminopropionyl alanine.
(§5) The assayed inhibitor compound in DMSO/buffer solution was compared to an equal amount of DMSO/buffer with no inhibitor as control using Microfluor™ White Plates (Dynatech). The inhibitor or control solution was maintained in the plate for 10 minutes and the substrate was added to provide a final concentration of 4 μM.
(§6) Inhibition was measured as a reduction in fluorescent intensity as a function of inhibitor concentration, using a Perkin Elmer L550 plate reader. The IC50 values were calculated from those values.

Test [2] deals with T2, MMP-13 (Homo sapiens, UniProt P45452).
T2 construct: made in house; host or cells: baculovirus / insect cells
The note with it: APMA-activated, room temperature, pH 7.5.
Method: as §1, §2, §3, §4, §5, §6

For test [3], the target named is T3, MMP-2 (Homo sapiens, UniProt P08253).
T3 sequence (P08253 110-660): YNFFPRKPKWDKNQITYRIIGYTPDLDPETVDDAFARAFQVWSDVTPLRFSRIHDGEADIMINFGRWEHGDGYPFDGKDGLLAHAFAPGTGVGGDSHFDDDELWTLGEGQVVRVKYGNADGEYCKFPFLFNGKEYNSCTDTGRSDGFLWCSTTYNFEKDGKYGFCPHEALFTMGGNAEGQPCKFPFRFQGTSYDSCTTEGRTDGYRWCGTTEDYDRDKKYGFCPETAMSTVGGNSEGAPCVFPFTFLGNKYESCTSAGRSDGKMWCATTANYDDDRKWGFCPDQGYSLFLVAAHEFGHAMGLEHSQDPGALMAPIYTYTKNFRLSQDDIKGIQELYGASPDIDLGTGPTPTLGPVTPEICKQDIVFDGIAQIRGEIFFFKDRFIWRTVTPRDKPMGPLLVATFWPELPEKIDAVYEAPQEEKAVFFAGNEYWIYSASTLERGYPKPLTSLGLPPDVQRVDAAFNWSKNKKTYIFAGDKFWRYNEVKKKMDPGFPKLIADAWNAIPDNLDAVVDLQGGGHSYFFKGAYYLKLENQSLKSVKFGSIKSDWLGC
The note with it: room temperature, pH 7.5.
Method: Briefly, 4-aminophenylmercuric acetate (APMA) or trypsin-activated MMPs were incubated with various concentrations of the inhibitor compound at room temperature for 5 minutes. […] The assayed inhibitor compound in DMSO/buffer solution was compared to an equal amount of DMSO/buffer with no inhibitor as control using MicrofluorTM White Plates (Dynatech). The inhibitor or control solution was maintained in the plate for 10 minutes and the substrate was added to provide a final concentration of 4 μM. […] Inhibition was measured as a reduction in fluorescent intensity as a function of inhibitor concentration, using a Perkin Elmer [MUT] plate reader. The IC50 values were calculated from those values.

Where [4] appears, read: recombinant human enzyme, read-out: MMP-13 IC50.
[5] abbreviates: MMP-13 IC50, recombinant human enzyme.

Where “and” joins values, the source holds several entries; their conditions need not be identical. Identical values can stand only once. Like-named read-outs stand apart in the source and are kept apart here.

Consider `O=C(NC(CS(=O)(=O)c1ccc(Sc2ccccc2)cc1)C(=O)NO)c1cccc2ccccc12` (stereo not shown) [Example 36], for which the half-inhibitory concentration (IC50) in test [1] was greater than 10000 nM; in test [2] (setting [4]), 2.5 nM.

`O=C(NC(CS(=O)(=O)c1ccc(Sc2ccccc2)cc1)C(=O)NO)c1ccncc1` (stereo not shown) [Example 28]: the IC50 in test [1] was greater than 10000 nM; in test [3], 5.5 nM; in test [2] (setting [4]), 13 nM.

Turning to `CC(C)(C)NC(=O)NC(CS(=O)(=O)c1ccc(Sc2ccccc2)cc1)C(=O)NO` (stereo not shown) [Example 20b], the results for the IC50 in test [1] and in test [2] (setting [4]) were greater than 10000 nM and 4 nM, respectively.

With `CC(C)(C)NC(=O)NC(CS(=O)(=O)c1ccc(Sc2ccccc2)cc1)C(=O)NO` (stereo not shown) [Example 45], the IC50 in test [2] (setting [4]) was found to be 5 nM.

For `CC(CS(=O)(=O)c1ccc(Oc2ccccc2)cc1)(NCCc1ccccc1)C(=O)NO` (stereo not shown) [Example 67], the IC50 turned out to be 2400 nM in test [1] and 2.4 nM in test [2] (setting [4]).

As to `CN(Cc1ccccc1)[C@H](CS(=O)(=O)c1ccc(Oc2ccccc2)cc1)C(=O)NO` [Example 48], the IC50 in test [1] was 475 nM; in test [3] it was less than 0.1 nM; in test [2] (setting [4]), 0.2 nM.

Take `Cc1ccc(S(=O)(=O)NC(CS(=O)(=O)c2ccc(Oc3ccccc3)cc2)C(=O)NO)cc1` (stereo not shown) [Example 12c]: the IC50 in test [1] was 400 nM; in test [3], less than 0.1 nM; in test [2] (setting [4]), 0.6 nM.

As for `O=C(CNC(=O)OCc1ccccc1)NC(CS(=O)(=O)c1ccc(Sc2ccccc2)cc1)C(=O)NO` (stereo not shown) [Example 16c, Phenylmethyl-[2-[[2-(hydroxyamino)-2-oxo-1-[[[4-(phenylthio)-phenyl]sulfonyl]methyl]ethyl]amino]-2-oxoethyl]carbamate], the results for the IC50 in test [1] and in test [2] (setting [4]) were greater than 10000 nM and 0.8 nM, respectively.

In the case of `O=C(NC(CS(=O)(=O)c1ccc(Sc2ccccc2)cc1)C(=O)NO)OCc1ccccc1` (stereo not shown) [Example 14c, Phenylmethyl-[2-(hydroxyamino)-2-oxo-1-[[[4-(phenylthio)-phenyl]sulfonyl]methyl]ethyl]carbamate], the concentration for half-maximal inhibition (IC50) was greater than 10000 nM in test [1] and 3.7 nM in test [2] (setting [4]).

For the compound `CN(C)C(C)(CS(=O)(=O)c1ccc(Oc2ccccc2)cc1)C(=O)NO` (stereo not shown) [Example 52], in test [2] (setting [4]), the IC50 came to 24 nM.

As to `O=C(NC(CS(=O)(=O)c1ccc(Sc2ccccc2)cc1)C(=O)NO)c1ccco1` (stereo not shown) [Example 27], the IC50 in test [1] is greater than 10000 nM; in test [2] (setting [4]), 14 nM.

On to `CC(CS(=O)(=O)c1ccc(Oc2ccccc2)cc1)(NC(=O)CN1CCCC1)C(=O)NO` (stereo not shown) [Example 49], for which the IC50 in test [2] (setting [4]) was determined as 160 nM.

On to `O=C(N[C@@H](CS(=O)(=O)c1ccc(Oc2ccccc2)cc1)C(=O)NO)c1ccnc2ccccc12` [Example 51], for which the figures for the 50% inhibitory concentration (IC50) in test [1], in test [3] and in test [2] (setting [4]) were 295 nM, 0.3 nM and 0.4 nM, respectively.

On to `O=C(N[C@@H](CS(=O)(=O)c1ccc(Oc2ccccc2)cc1)C(=O)NO)c1ccncc1` [Example 44], for which the IC50 in test [1] came to 900 nM; in test [3], 0.3 nM; in test [2] (setting [4]) it was 0.8 nM.

With `COc1ccc(S(=O)(=O)CC(NS(C)(=O)=O)C(=O)NO)cc1` (stereo not shown) [Example 21], the IC50 worked out at 300 nM in test [1] and 15 nM in test [2] (setting [4]).

`CC(N)(CS(=O)(=O)c1ccc(Sc2ccccc2)cc1)C(=O)NO` (stereo not shown) [Example 58]: the concentration for half-maximal inhibition (IC50) in test [1] was 4400 nM; in test [2] (setting [4]), 2.4 nM.

With `CN(C(=O)OC(C)(C)C)C(C)(CS(=O)(=O)c1ccc(NC(=O)c2ccccc2)cc1)C(=O)NO` (stereo not shown) [Example 63], the figures for the IC50 in test [1], in test [3] and in test [2] (setting [4]) were 3050 nM, 1 nM and 21.5 nM, respectively.

Turning to `CC(=O)NC(C)(CS(=O)(=O)c1ccc(Sc2ccccc2)cc1)C(=O)NO` (stereo not shown) [Example 57], the IC50 in test [2] (setting [4]) came to 580 nM.

Turning to `COc1ccc(S(=O)(=O)CC(NC(C)=O)C(=O)NO)cc1` (stereo not shown) [Example 1, N-Hydroxy-3-[(4-methoxyphenyl)sulfonyl]-2-[(methylcarbonyl)amino]propanamide], the IC50 in test [1] amounted to 300 nM; in test [2] (setting [4]), 15 nM.

As to `CC(C)(C)OC(=O)NC(C)(CS(=O)(=O)c1ccc(NC(=O)c2ccccc2)cc1)C(=O)NO` (stereo not shown) [Example 62], the IC50 is 72.3 nM in test [1], 23.9 nM in test [3] and 1200 nM in test [2] (setting [4]).

`O=C(NC(CS(=O)(=O)c1ccc(Sc2ccccc2)cc1)C(=O)NO)c1cccnc1` (stereo not shown) [Example 29]: the IC50 in test [1] was greater than 10000 nM; in test [2] (setting [4]), 7 nM.

Consider `CCNC(C)(CS(=O)(=O)c1ccc(Oc2ccccc2)cc1)C(=O)NO` (stereo not shown) [Example 55], for which the values for the half-maximal inhibitory concentration (IC50) in test [1] and in test [2] (setting [4]) were 1600 nM and 1.6 nM, respectively.

As to `CC(=O)N[C@@H](CS(=O)(=O)c1ccc(Oc2ccccc2)cc1)C(=O)NO` [Example 9g, N^2-Acetyl-N^1-hydroxyl-3-[(4-phenoxyphenyl)sulphonyl]alaninamide], the values for the IC50 in test [1] and in test [2] (setting [4]) were 770 nM and 1.1 nM, respectively.

In the case of `CC(N)(CS(=O)(=O)c1ccc(NC(=O)c2ccccc2)cc1)C(=O)NO` (stereo not shown) [Example 61], the IC50 is greater than 10000 nM in test [1], 1.1 nM in test [3] and 60 nM in test [2] (setting [4]).

`NC(CS(=O)(=O)c1ccc(Sc2ccccc2)cc1)C(=O)NO` (stereo not shown) [Example 18a]: the IC50 was greater than 10000 nM in test [1] and 24 nM in test [2] (setting [4]).

`CC(CS(=O)(=O)c1ccc(Oc2ccccc2)cc1)(NCc1ccc2ccccc2c1)C(=O)NO` (stereo not shown) [Example 68]: in test [2] (setting [4]), the IC50 is 1.4 nM.

Consider `C[C@H](NC(=O)OCc1ccccc1)C(=O)NC(CS(=O)(=O)c1ccc(Sc2ccccc2)cc1)C(=O)NO` (stereo partly shown) [Example 19a], for which the results for the IC50 in test [1] and in test [2] (setting [4]) were greater than 10000 nM and 0.8 nM, respectively.

In the case of `CC(=O)N[C@@H](CS(=O)(=O)c1ccc(Sc2ccccc2)cc1)C(=O)NO` [Example 30], the figures for the IC50 in test [3] and in test [2] (setting [4]) were 0.5 nM and 2.9 nM, respectively.

Consider `CC(CS(=O)(=O)c1ccc(Oc2ccccc2)cc1)(NCc1ccc2c(c1)OCO2)C(=O)NO` (stereo not shown) [Example 66], for which the IC50 in test [2] (setting [4]) was found to be 1.1 nM.

As for `CC(CS(=O)(=O)c1ccc(Oc2ccccc2)cc1)(NCc1ccccc1)C(=O)NO` (stereo not shown) [Example 56], the half-inhibitory concentration (IC50) in test [2] (setting [4]) is 0.3 nM.

For `Cc1ccc(S(=O)(=O)NC(CS(=O)(=O)c2ccc(Sc3ccccc3)cc2)C(=O)NO)cc1` (stereo not shown) [Example 17c], the IC50 worked out at 600 nM in test [1] and 0.4 nM in test [2] (setting [4]).

`COc1ccc(S(=O)(=O)CC(NC(=O)NC(C)(C)C)C(=O)NO)cc1` (stereo not shown) [Example 2, 2-[[[(1,1-Dimethylethyl)amino]carbonyl]amino]-N-hydroxy-3-[(4-methoxyphenyl)sulfonyl]propanamide]: the IC50 in test [1] amounted to 1500 nM; in test [2] (setting [4]), 15 nM.

For `CC(N)(CS(=O)(=O)c1ccc(Oc2ccccc2)cc1)C(=O)NO` (stereo not shown) [Example 39], the IC50 in test [1] was 114 nM and 225 nM; in test [2] (setting [5]) it was 0.3 nM and 1.1 nM.

For the compound `CC(N)(CS(=O)(=O)c1ccc(Oc2ccccc2)cc1)C(=O)NO` (stereo not shown) [Example 38], the values for the IC50 in test [1] and in test [2] (setting [5]) were 170 nM and 0.5 nM, respectively.

In the case of `O=C(NC(CS(=O)(=O)c1ccc(Sc2ccccc2)cc1)C(=O)NO)c1ccccc1` (stereo not shown) [Example 34], the IC50 is greater than 10000 nM in test [1] and 5 nM in test [2] (setting [4]).

Take `O=C(NC(CS(=O)(=O)c1ccc(Sc2ccccc2)cc1)C(=O)NO)c1ccccc1-c1ccccc1` (stereo not shown) [Example 35]: the figures for the IC50 in test [1] and in test [2] (setting [4]) were 3000 nM and 0.2 nM, respectively.

As to `CCCCC(=O)NC(CS(=O)(=O)c1ccc(Sc2ccccc2)cc1)C(=O)NO` (stereo not shown) [Example 11g, N-[1-[(Hydroxyamino)carbonyl]-2-[[4-(phenylthio)phenyl]sulfonyl]ethyl]pentanamide], the IC50 in test [2] (setting [4]) was 6 nM.

For the compound `NC(CS(=O)(=O)c1ccc(Oc2ccccc2)cc1)(C(=O)NO)c1ccccc1` (stereo not shown) [Example 70], the IC50 was determined as 130 nM in test [1] and 0.4 nM in test [2] (setting [4]).

With `O=C(NC(CS(=O)(=O)c1ccc(Oc2ccccc2)cc1)(C(=O)NO)c1ccccc1)c1ccccc1` (stereo not shown) [Example 65], in test [2] (setting [4]), the IC50 was 161 nM.

On to `CC(C)(C)C(=O)NC(CS(=O)(=O)c1ccc(Oc2ccccc2)cc1)C(=O)NO` (stereo not shown) [Example 10d], for which the values for the IC50 in test [1] and in test [2] (setting [4]) were 1600 nM and 2.7 nM, respectively.

Consider `C#CCNC(C)(CS(=O)(=O)c1ccc(Oc2ccccc2)cc1)C(=O)NO` (stereo not shown) [Example 69], for which the results for the IC50 in test [1] and in test [2] (setting [4]) were 700 nM and 0.6 nM, respectively.

For the compound `COc1ccc(S(=O)(=O)CC(NC(=O)CNC(=O)OCc2ccccc2)C(=O)NO)cc1` (stereo not shown) [Example 6, Phenylmethyl-[2-[[2-(hydroxyamino)-2-oxo-1-[[[4-methoxyphenyl]sulfonyl]methyl]ethyl]amino]-2-oxoethyl]carbamate], the figures for the IC50 in test [1] and in test [2] (setting [4]) were 40 nM and less than 1 nM, respectively.

Regarding `O=C(N[C@@H](CS(=O)(=O)c1ccc(Sc2ccccc2)cc1)C(=O)NO)OCc1ccccc1` [Example 32], the IC50 in test [1] came to 8000 nM; in test [2] (setting [4]), 0.4 nM.

As a reminder, the IC50 is the concentration that gives 50% inhibition.
